Each compound was assayed on Streptococcus pyogenes (ATCC# 97-03 14289) (assay: Anti-microbial screen (percent inhibition of growth, OD 570 nm)). Conditions: Spy4H: Streptococcus pyogenes, read at 4 hours, OD 570 nm; Conc 0.1776 mg ml.
Format: cell-based
Protocol: Streptococcus pyogenes (ATCC# 97-03 14289) was grown in Todd Hewitt Broth (THB) (Difco Laboratories #0492-17-6) overnight until reaching an optical density of (OD=0.636@570 nm) by reading 0.1 ml in a 96 well microtiter plate in a Molecular Devices Thermomax. This preparation was kept frozen as stocks in 30% v/v glycerol in 1.5 ml aliquots at […] until use. Prior to experiments, 6 ml aliquots were thawed and diluted into 50 ml 2×THB. 60 ul of this dilution was added to 92 wells of microtiter plate. To three wells THB (200 ul) was added to serve as a blank and a sterility control. Test compounds in DMSO and appropriate concentrations of DMSO were added to Growth/Solvent Controls at 0 time. Plates were read at 0 time at 570 nm in the Molecular Devices plate reader to obtain compounds correction factors for insoluble or colored compounds. Plates were read again at 4 hours.
Percent inhibition is calculated with the following formula:
Color correct=O.D. 0 hr - Blank 0 hr)-(Solvent Control Ohr - Blank 0 hr) [formula]
COc1cccc(CN(Cc2ccc(O)cc2)/C(=N/c2cc(C)ccc2OC)Sc2cccc(C)c2)c1 [Cmpd 1109] gave an inhibition of growth at 177.6 µg/mL of 57.8%. Cc1ccc(S/C(=N/c2cc(Cl)cc(Cl)c2)N(Cc2ccc(O)cc2)CC(C)C)cc1 [Cmpd 253] gave an inhibition of growth at 177.6 µg/mL of 66.5%. Work on COCCN(Cc1cccc(O)c1)/C(=N\c1ccccc1F)Sc1ccc(C)cc1C [compound 107] yielded an inhibition of growth at 177.6 µg/mL of 75.8%. Work on Cc1ccc(CN(Cc2cccc(O)c2)/C(=N/c2ccc(Cl)c([N+](=O)[O-])c2)Sc2cccc(C)c2)cc1 [Cmpd 463] yielded an inhibition of growth at 177.6 µg/mL of 86.7%. For Cc1ccc(CN(Cc2ccc(O)cc2)/C(=N/c2cc(Cl)cc(Cl)c2)Sc2ccc(C)cc2C)cc1 [Cmpd 13], the inhibition of growth at 177.6 µg/mL was 65.7%. Work on COc1cccc(S/C(=N\Cc2ccc(F)cc2)N(Cc2ccc(O)cc2)Cc2ccc(Cl)c(Cl)c2)c1 [Cmpd 44] yielded an inhibition of growth at 177.6 µg/mL of 67.5%. With COc1cccc(S/C(=N\c2cccc(C(F)(F)F)c2)N(Cc2ccc(O)cc2)Cc2ccc(Cl)c(Cl)c2)c1 [Cmpd 46] the inhibition of growth at 177.6 µg/mL was 60.6%. With COc1cccc(CN(Cc2cccc(O)c2)/C(=N/c2cc(Cl)cc(Cl)c2)Sc2cccc(OC)c2)c1 [Cmpd 333] the inhibition of growth at 177.6 µg/mL was 67.2%. Compound Cc1ccc(CN(Cc2ccc(O)cc2)/C(=N\c2ccc(C(F)(F)F)cc2)Sc2ccc(C)cc2C)cc1 [Cmpd 7] has an inhibition of growth at 177.6 µg/mL of 63.7%. For Oc1cccc(CN(Cc2ccc(Cl)c(Cl)c2)/C(=N/c2ccc(C(F)(F)F)cc2)Sc2ccccc2)c1 [Cmpd 847], the inhibition of growth at 177.6 µg/mL was 90.3%. For Cc1ccc(CN(Cc2cccc(O)c2)/C(=N\c2ccc(Cl)c(C(F)(F)F)c2)Sc2cccc(C)c2)cc1 [Cmpd 473], the inhibition of growth at 177.6 µg/mL was 57.6%. In the case of CCCCN(Cc1cccc(O)c1)/C(=N\c1ccc(Cl)c(C(F)(F)F)c1)Sc1ccccc1 [Cmpd 753], the inhibition of growth at 177.6 µg/mL is reported as 66%. For COc1ccc(C)cc1/N=C(/Sc1cccc(C)c1)N(Cc1cccc(O)c1)CC(C)C [Cmpd 549], the inhibition of growth at 177.6 µg/mL was 62.9%. Cc1ccc(CN(Cc2cccc(O)c2)/C(=N/c2cc(Cl)cc(Cl)c2)Sc2cccc(C)c2)cc1 [Cmpd 453] gave an inhibition of growth at 177.6 µg/mL of 60.5%. Cc1ccc(S/C(=N\c2ccc(Cl)c([N+](=O)[O-])c2)N(Cc2ccc(O)cc2)Cc2cccc(Cl)c2)cc1 [Cmpd 183] gave an inhibition of growth at 177.6 µg/mL of 64.8%. In the case of COCCN(Cc1ccc(O)cc1)/C(=N\c1cc(Cl)cc(Cl)c1)Sc1ccc(C)cc1 [Cmpd 653], the inhibition of growth at 177.6 µg/mL is reported as 80.2%. Cc1cccc(S/C(=N/c2ccc(C(F)(F)F)cc2)N(Cc2cccc(O)c2)CC(C)C)c1 [Cmpd 527] was tested, and the inhibition of growth at 177.6 µg/mL was 96.4%. For COCCN(Cc1ccc(O)cc1)/C(=N\c1cc(Cl)cc(Cl)c1)Sc1ccc(C)cc1C [Cmpd 1053], the inhibition of growth at 177.6 µg/mL was 66%. Work on COCCN(Cc1cccc(O)c1)/C(=N\c1ccc(Cl)c(C(F)(F)F)c1)Sc1ccc(C)cc1C [Cmpd 113] yielded an inhibition of growth at 177.6 µg/mL of 59.8%. Cc1ccc(S/C(=N/c2ccc(C(F)(F)F)cc2)N(Cc2ccc(O)cc2)CC(C)C)cc1 [Cmpd 247] was tested, and the inhibition of growth at 177.6 µg/mL was 60.3%. Compound Cc1ccc(S/C(=N\Cc2ccccc2)N(Cc2cccc(O)c2)CC2CCCCC2)c(C)c1 [Cmpd 1241] has an inhibition of growth at 177.6 µg/mL of 68.2%. For CCCCN(Cc1cccc(O)c1)/C(=N\c1cc(Cl)cc(Cl)c1)Sc1ccccc1 [Cmpd 733], the inhibition of growth at 177.6 µg/mL was 63.5%. Cc1ccc(CN(Cc2cccc(O)c2)/C(=N/c2ccccc2[N+](=O)[O-])Sc2cccc(C)c2)cc1 [Cmpd 466] showed an inhibition of growth at 177.6 µg/mL of 69.7%. CCCCN(Cc1cccc(O)c1)/C(=N\Cc1ccc(F)cc1)Sc1ccccc1 [Cmpd 724] showed an inhibition of growth at 177.6 µg/mL of 83.3%. COc1cccc(CN(Cc2cccc(O)c2)/C(=N\c2ccc(Cl)c(C(F)(F)F)c2)Sc2cccc(OC)c2)c1 [Cmpd 353] showed an inhibition of growth at 177.6 µg/mL of 59.1%. For COc1cccc(CCN(Cc2cccc(O)c2)/C(=N/c2ccc(F)c(Cl)c2)Sc2ccccc2)c1 [Cmpd 814], the inhibition of growth at 177.6 µg/mL was 57.8%. Cc1cccc(S/C(=N\c2ccc(F)c(F)c2)N(Cc2ccccc2)Cc2cccc(O)c2)c1 [Cmpd 1156] showed an inhibition of growth at 177.6 µg/mL of 59.5%. With COc1cccc(CCN(Cc2ccc(O)cc2)/C(=N/c2ccc(F)c(Cl)c2)Sc2ccccc2)c1 [Cmpd 894] the inhibition of growth at 177.6 µg/mL was 57.7%. COc1cccc(CN(Cc2cccc(O)c2)/C(=N/c2ccc(Cl)c(Cl)c2)Sc2cccc(OC)c2)c1 [Cmpd 328] gave an inhibition of growth at 177.6 µg/mL of 98.9%. Compound COc1cccc(S/C(=N\c2ccc(Cl)c([N+](=O)[O-])c2)N(Cc2ccc(O)cc2)Cc2ccc(Cl)c(Cl)c2)c1 [Cmpd 63] has an inhibition of growth at 177.6 µg/mL of 66.8%. With Cc1cccc(S/C(=N\c2ccc(C(F)(F)F)cc2)N(CCc2ccc(Cl)cc2)Cc2ccc(O)cc2)c1 [Cmpd 1167] the inhibition of growth at 177.6 µg/mL was 94.3%. In the case of COc1ccc(C)cc1/N=C(\Sc1ccc(C)cc1)N(Cc1ccc(C)cc1)Cc1cccc(O)c1 [Cmpd 429], the inhibition of growth at 177.6 µg/mL is reported as 79.5%. COc1cccc(S/C(=N\c2cc(Cl)cc(Cl)c2)N(Cc2ccc(C)cc2)Cc2ccc(O)cc2)c1 [Cmpd 133] showed an inhibition of growth at 177.6 µg/mL of 94.3%. With COc1cccc(S/C(=N/c2ccc(Cl)c(C(F)(F)F)c2)N(Cc2ccc(C)cc2)Cc2ccc(O)cc2)c1 [Cmpd 153] the inhibition of growth at 177.6 µg/mL was 70.6%. COc1cccc(CN(Cc2ccc(O)cc2)/C(=N/c2cc(Cl)cc(Cl)c2)Sc2cccc(C)c2)c1 [Cmpd 1093] was tested, and the inhibition of growth at 177.6 µg/mL was 87.1%.

Same assay, conditions: Streptococcus pyogenes; Assay Spy4H; Conc 0.1776 mg ml; plates read at 570 nm at 0 time and at 4 hours
CCOc1ccc(/N=C(/Sc2ccc(C)cc2C)N(Cc2cccc(O)c2)CC2CCCCC2)cc1 [Cmpd 1261] was tested, and the inhibition of growth at 177.6 µg/mL was 51.9%. With Cc1ccc(S/C(=N\Cc2ccc(F)cc2)N(Cc2cccc(O)c2)CC2CCCCC2)c(C)c1 [Cmpd 1244] the inhibition of growth at 177.6 µg/mL was 53.8%. For Cc1cccc(S/C(=N\c2ccccc2[N+](=O)[O-])N(Cc2ccccc2)Cc2cccc(O)c2)c1 [Cmpd 1146], the inhibition of growth at 177.6 µg/mL was 56.4%. Compound COc1cccc(S/C(=N\c2ccc(Cl)c([N+](=O)[O-])c2)N(CCc2ccc(F)cc2)Cc2cccc(O)c2)c1 [Cmpd 943] has an inhibition of growth at 177.6 µg/mL of 50.8%. Oc1cccc(CN(Cc2ccc(Cl)c(Cl)c2)/C(=N/c2cccc(F)c2)Sc2ccccc2)c1 [Cmpd 843] showed an inhibition of growth at 177.6 µg/mL of 53.4%. Cc1cccc(C/N=C(\Sc2ccc(C)cc2C)N(Cc2cccc(O)c2)CC2CCCCC2)c1 [Cmpd 1242] gave an inhibition of growth at 177.6 µg/mL of 54.8%. COc1ccc(C)cc1/N=C(\Sc1cccc(C)c1)N(CCc1ccc(Cl)cc1)Cc1cccc(O)c1 [Cmpd 709] gave an inhibition of growth at 177.6 µg/mL of 49.7%. Cc1ccc(S/C(=N/c2ccc(F)c(Cl)c2)N(Cc2ccc(O)cc2)CC(C)C)cc1 [Cmpd 254] showed an inhibition of growth at 177.6 µg/mL of 49.2%. Cc1ccc(S/C(=N\c2ccc(F)c(Cl)c2)N(CCc2ccc(Cl)cc2)Cc2cccc(O)c2)c(C)c1 [Cmpd 294] was tested, and the inhibition of growth at 177.6 µg/mL was 56.6%. Cc1ccc(S/C(=N/c2ccc(Cl)c([N+](=O)[O-])c2)N(Cc2cccc(O)c2)CC2CCCCC2)c(C)c1 [Cmpd 1263] showed an inhibition of growth at 177.6 µg/mL of 56.7%. Cc1cccc(S/C(=N/Cc2ccccc2)N(Cc2cccc(O)c2)CC(C)C)c1 [Cmpd 521] gave an inhibition of growth at 177.6 µg/mL of 50.6%. With Cc1cccc(S/C(=N\c2ccccc2[N+](=O)[O-])N(CCc2ccc(Cl)cc2)Cc2ccc(O)cc2)c1 [Cmpd 1186] the inhibition of growth at 177.6 µg/mL was 52.9%. In the case of Cc1cccc(C/N=C(\Sc2ccccc2)N(Cc2cccc(O)c2)Cc2ccc(Cl)c(Cl)c2)c1 [Cmpd 842], the inhibition of growth at 177.6 µg/mL is reported as 49.3%. For COc1cccc(S/C(=N/c2ccc(OC(F)(F)F)cc2)N(Cc2ccc(O)cc2)Cc2ccc(Cl)c(Cl)c2)c1 [Cmpd 75], the inhibition of growth at 177.6 µg/mL was 52.3%. In the case of Oc1cccc(CN(Cc2ccc(Cl)c(Cl)c2)/C(=N/c2ccc(F)c(Cl)c2)Sc2ccccc2)c1 [Cmpd 854], the inhibition of growth at 177.6 µg/mL is reported as 55.8%. Work on Cc1cccc(S/C(=N\c2ccc(F)c(Cl)c2)N(Cc2ccccc2)Cc2cccc(O)c2)c1 [Cmpd 1134] yielded an inhibition of growth at 177.6 µg/mL of 53.6%. COc1cccc(S/C(=N\Cc2ccc(F)cc2)N(Cc2ccc(C)cc2)Cc2ccc(O)cc2)c1 [Cmpd 124] was tested, and the inhibition of growth at 177.6 µg/mL was 55.6%. With COc1cccc(CN(Cc2cccc(O)c2)/C(=N/c2ccc(F)c(Cl)c2)Sc2cccc(OC)c2)c1 [Cmpd 334] the inhibition of growth at 177.6 µg/mL was 50.6%. Compound Cc1ccc(S/C(=N\c2ccccc2[N+](=O)[O-])N(Cc2ccc(O)cc2)Cc2cccc(Cl)c2)cc1 [Cmpd 186] has an inhibition of growth at 177.6 µg/mL of 56.5%. COc1ccc(C)cc1/N=C(\Sc1cccc(C)c1)N(Cc1ccc(C)cc1)Cc1cccc(O)c1 [Cmpd 469] gave an inhibition of growth at 177.6 µg/mL of 53%. COCCN(Cc1ccc(O)cc1)/C(=N\c1ccc(F)c(F)c1)Sc1ccc(C)cc1C [Cmpd 1076] was tested, and the inhibition of growth at 177.6 µg/mL was 55.1%. With CCCCN(Cc1cccc(O)c1)/C(=N\c1ccc(C(F)(F)F)cc1)Sc1ccccc1 [Cmpd 727] the inhibition of growth at 177.6 µg/mL was 56.3%. COc1cccc(S/C(=N\c2cccc(F)c2)N(CCc2ccc(Cl)cc2)Cc2ccc(O)cc2)c1 [Cmpd 363] showed an inhibition of growth at 177.6 µg/mL of 50.3%. With COc1cccc(S/C(=N/c2ccc(Cl)c(C(F)(F)F)c2)N(CCc2ccc(Cl)cc2)Cc2ccc(O)cc2)c1 [Cmpd 393] the inhibition of growth at 177.6 µg/mL was 54.5%. Compound Cc1ccc(CN(Cc2cccc(O)c2)/C(=N/c2ccc(Cl)c([N+](=O)[O-])c2)Sc2ccc(C)cc2)cc1 [Cmpd 423] has an inhibition of growth at 177.6 µg/mL of 57.3%. In the case of Cc1ccc(S/C(=N\c2cc(Cl)cc(Cl)c2)N(Cc2ccccc2)Cc2ccc(O)cc2)c(C)c1 [Cmpd 493], the inhibition of growth at 177.6 µg/mL is reported as 55.6%. COc1cccc(CN(Cc2cccc(O)c2)/C(=N/c2ccc(Cl)c([N+](=O)[O-])c2)Sc2cccc(OC)c2)c1 [Cmpd 343] gave an inhibition of growth at 177.6 µg/mL of 52.7%. Compound Cc1ccc(S/C(=N/Cc2ccc(F)cc2)N(Cc2ccc(O)cc2)CC(C)C)cc1 [Cmpd 244] has an inhibition of growth at 177.6 µg/mL of 51.6%.

Source: patent US20040010036A1, “N,N, -Substituted s-Aryl-Isothioureas, N,N,N, -Substituted s-Aryl-Isothioureas and combinatorial libraries thereof” (priority 2002, published 2004)
